Laboratory results reported in article PMC9516332 (Frontiers in Oncology, 2022).
Read-outs that look alike come from different tables or passages of the source.

How the values were obtained:
Test in all cases: Kinase panel profiling at 1 µmol/L (MSA or IMAP), percentage inhibition
Assay type in all cases: biochemical
[1] = target: panel of 255 wild-type kinases (Homo sapiens, UniProt Q04912); conditions: kinase RON; 1 µmol/L single concentration; read-out: %-inhibition at 1 µmol/L, RON
[2] = target: panel of 255 wild-type kinases (Homo sapiens, UniProt P04626); conditions: kinase HER2; 1 µmol/L single concentration; read-out: %-inhibition at 1 µmol/L, HER2
[3] = target: panel of 255 wild-type kinases (Homo sapiens, UniProt Q9UK32); conditions: kinase RSK4; 1 µmol/L single concentration; read-out: %-inhibition at 1 µmol/L, RSK4
[4] = target: panel of 255 wild-type kinases (Homo sapiens, UniProt Q9P286); conditions: PAK5; 1 µmol/L single concentration; read-out: %-inhibition, PAK5
[5] = target: panel of 255 wild-type kinases (Homo sapiens, UniProt Q96SB4); conditions: kinase SRPK1; 1 µmol/L single concentration; read-out: %-inhibition at 1 µmol/L, SRPK1
[6] = target: panel of 255 wild-type kinases (Homo sapiens, UniProt P48730); conditions: kinase CK1δ; 1 µmol/L single concentration; read-out: %-inhibition at 1 µmol/L, CK1δ
[7] = target: panel of 255 wild-type kinases (Homo sapiens, UniProt Q8N568); conditions: kinase DCAMKL2; 1 µmol/L single concentration; read-out: %-inhibition at 1 µmol/L, DCAMKL2
[8] = target: panel of 255 wild-type kinases (Homo sapiens, UniProt Q15375); conditions: kinase EPHA7; 1 µmol/L single concentration; read-out: %-inhibition at 1 µmol/L, EPHA7
[9] = target: panel of 255 wild-type kinases (Homo sapiens, UniProt O43683); conditions: BUB1/BUB3 kinase assay; 1 µmol/L single concentration; read-out: %-inhibition BUB1/BUB3
[10] = target: panel of 255 wild-type kinases (Homo sapiens, UniProt Q08345); conditions: kinase DDR1; 1 µmol/L single concentration; read-out: %-inhibition at 1 µmol/L, DDR1
[11] = target: T1, panel of 255 wild-type kinases (Homo sapiens, UniProt Q9UQB9); conditions: AurC kinase assay; 1 µmol/L single concentration; read-out: %-inhibition AurC
T1 sequence (Q9UQB9 1-309): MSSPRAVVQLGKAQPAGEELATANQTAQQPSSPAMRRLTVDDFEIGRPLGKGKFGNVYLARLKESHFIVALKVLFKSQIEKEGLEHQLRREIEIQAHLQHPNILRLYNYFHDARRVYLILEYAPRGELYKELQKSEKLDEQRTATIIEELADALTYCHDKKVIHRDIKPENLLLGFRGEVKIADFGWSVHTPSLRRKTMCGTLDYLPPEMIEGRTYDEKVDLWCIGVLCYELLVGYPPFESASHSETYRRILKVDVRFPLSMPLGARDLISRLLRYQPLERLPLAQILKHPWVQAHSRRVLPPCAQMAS

[12] = target: panel of 255 wild-type kinases (Homo sapiens, UniProt P49761); conditions: kinase CLK3; 1 µmol/L single concentration; read-out: %-inhibition at 1 µmol/L, CLK3
[13] = target: panel of 255 wild-type kinases (Homo sapiens, UniProt Q14680); conditions: MELK; 1 µmol/L single concentration; read-out: %-inhibition, MELK
[14] = target: panel of 255 wild-type kinases (Homo sapiens, UniProt P22455); conditions: kinase FGFR4; 1 µmol/L single concentration; read-out: %-inhibition at 1 µmol/L, FGFR4
[15] = target: panel of 255 wild-type kinases (Homo sapiens, UniProt P06239); conditions: read-out: %-inhibition at 1 µmol/L, LCK
[16] = target: panel of 255 wild-type kinases (Homo sapiens, UniProt Q8TDX7); conditions: NEK7; 1 µmol/L single concentration; read-out: %-inhibition, NEK7
[17] = target: panel of 255 wild-type kinases (Homo sapiens, UniProt P11362); conditions: kinase FGFR1; 1 µmol/L single concentration; read-out: %-inhibition at 1 µmol/L, FGFR1
[18] = target: panel of 255 wild-type kinases (Homo sapiens, UniProt P06241); conditions: kinase FYN [isoform a]; 1 µmol/L single concentration; read-out: %-inhibition at 1 µmol/L, FYN [isoform a]
[19] = target: panel of 255 wild-type kinases (Homo sapiens, UniProt O75676); conditions: MSK2; 1 µmol/L single concentration; read-out: %-inhibition, MSK2
[20] = target: panel of 255 wild-type kinases (Homo sapiens, UniProt P49840); conditions: kinase GSK3α; 1 µmol/L single concentration; read-out: %-inhibition at 1 µmol/L, GSK3α
[21] = target: panel of 255 wild-type kinases (Homo sapiens, UniProt Q00534); conditions: CDK6/CycD3 kinase assay; 1 µmol/L single concentration; read-out: %-inhibition CDK6/CycD3
[22] = target: panel of 255 wild-type kinases (Homo sapiens, UniProt O96017); conditions: CHK2 kinase assay; 1 µmol/L single concentration; read-out: %-inhibition CHK2
[23] = target: panel of 255 wild-type kinases (Homo sapiens, UniProt P27361); conditions: kinase Erk1; 1 µmol/L single concentration; read-out: %-inhibition at 1 µmol/L, Erk1
[24] = kinase LCK, 1 µmol/L single concentration

| Compound | inhibition at 1 µM [1] [%] | inhibition at 1 µM [2] [%] | inhibition at 1 µM [3] [%] | inhibition at 1 µM [4] [%] | inhibition at 1 µM [5] [%] | inhibition at 1 µM [6] [%] | inhibition at 1 µM [7] [%] | inhibition at 1 µM [8] [%] | inhibition at 1 µM [9] [%] | inhibition at 1 µM [10] [%] | inhibition at 1 µM [11] [%] | inhibition at 1 µM [12] [%] | inhibition at 1 µM [13] [%] | inhibition at 1 µM [14] [%] | inhibition at 1 µM [16] [%] | inhibition at 1 µM [17] [%] | inhibition at 1 µM [18] [%] | inhibition at 1 µM [19] [%] | inhibition at 1 µM [20] [%] | inhibition at 1 µM [21] [%] | further results |
| --- | --- | --- | --- | --- | --- | --- | --- | --- | --- | --- | --- | --- | --- | --- | --- | --- | --- | --- | --- | --- | --- |
| CCn1c(=O)c(-c2cc(NC(=O)Nc3ccccc3)c(F)cc2Br)cc2cnc(NC)cc21 [ripretinib] | 1.39 | 5.51 | 0.401 | 1.9 | -13 | -8 | 2 | 54 | 2.76 | 90 | 0.523 | -7 | 30 | 11 | -7 | 92 | 23 | 3 | -0.0405 | -7 | inhibition at 1 µM [15, 24]: 99%; inhibition at 1 µM [22]: 6%; inhibition at 1 µM [23]: 2.79% |
| Cn1cnc2c(F)c(Nc3ccc(Br)cc3F)c(C(=O)NOCCO)cc21 [binimetinib] | -3.72 | 1.43 | -0.233 | 5 | -3.37 | -4 | -13 | 0.598 | -3.43 | -0.162 | -6.37 | 0.514 | -1.8 | 4.66 | 2 | 2 | 3.76 | -3.65 | -2.8 | -0.0739 | inhibition at 1 µM [15, 24]: -0.655%; inhibition at 1 µM [22]: 4.21%; inhibition at 1 µM [23]: -4.32% |
| COc1ccc(CN2C3CC2CN(c2ccc(-c4cc(OCC(C)(C)O)cn5ncc(C#N)c45)cn2)C3)cn1 [selpercatinib] | 49 | 2.47 | 43 | 9 | -9 | -1.7 | 1.22 | 96 | 19 | 89 | 80 | 0.425 | 62 | 84 | 1 | 97 | 24 | 5.66 | 30 | 0.675 | inhibition at 1 µM [15, 24]: 77%; inhibition at 1 µM [22]: 80%; inhibition at 1 µM [23]: -7.44% |
| Cc1nc(NC(=O)N2CCC[C@H]2C(N)=O)sc1-c1ccnc(C(C)(C)C(F)(F)F)c1 [alpelisib] | 7 | 19 | -4 | -2.58 | 6 | 9 | 6.52 | -1.3 | -4.62 | 3.8 | 4.51 | 22 | 0.22 | 9 | 0.399 | 4.29 | 1.52 | 0.0558 | -2.64 | 2 | inhibition at 1 µM [15, 24]: 5%; inhibition at 1 µM [22]: -1.14%; inhibition at 1 µM [23]: -0.813% |

Continued, in another order:

| inhibition at 1 µM [1] [%] | inhibition at 1 µM [2] [%] | inhibition at 1 µM [3] [%] | inhibition at 1 µM [4] [%] | inhibition at 1 µM [5] [%] | inhibition at 1 µM [6] [%] | inhibition at 1 µM [7] [%] | inhibition at 1 µM [8] [%] | inhibition at 1 µM [9] [%] | inhibition at 1 µM [10] [%] | inhibition at 1 µM [11] [%] | inhibition at 1 µM [12] [%] | inhibition at 1 µM [13] [%] | inhibition at 1 µM [14] [%] | inhibition at 1 µM [16] [%] | inhibition at 1 µM [17] [%] | inhibition at 1 µM [18] [%] | inhibition at 1 µM [19] [%] | inhibition at 1 µM [20] [%] | inhibition at 1 µM [21] [%] | Compound | further results |
| --- | --- | --- | --- | --- | --- | --- | --- | --- | --- | --- | --- | --- | --- | --- | --- | --- | --- | --- | --- | --- | --- |
| 2.23 | 101 | 0.229 | 3.53 | -3 | -2.17 | 3.59 | 1.07 | 0.842 | 9 | -5.26 | 5.42 | 0.809 | 4 | -5.58 | -3.24 | 2.29 | 1.24 | 5.54 | -2.12 | Cc1cc(Nc2ncnc3ccc(NC4=NC(C)(C)CO4)cc23)ccc1Oc1ccn2ncnc2c1 [tucatinib] | inhibition at 1 µM [15]: 20%; inhibition at 1 µM [22]: 4%; inhibition at 1 µM [23]: -2.6% |
| -1.28 | 3 | 5.4 | 0.473 | 6 | -1.44 | 0.902 | -1.78 | -4 | 4.73 | -0.456 | 7.48 | -2.6 | 6.37 | -0.844 | -1.41 | -3.52 | -0.42 | -1.06 | -3.49 | Cn1cnc2c(F)c(Nc3ccc(Br)cc3Cl)c(C(=O)NOCCO)cc21 [selumetinib] | inhibition at 1 µM [15, 24]: 8%; inhibition at 1 µM [22]: 4%; inhibition at 1 µM [23]: -4.67% |
| 5 | 100 | 16 | 4.29 | -9.5 | -6.63 | 1.42 | 38 | 22 | 101 | 0.922 | 2.5 | 15 | -4.42 | -4.37 | 8 | 32 | 6 | 1.45 | -6 | COc1cc2ncnc(Nc3ccc(F)c(Cl)c3)c2cc1NC(=O)/C=C/CN1CCCCC1 [dacomitinib] | inhibition at 1 µM [15, 24]: 93%; inhibition at 1 µM [22]: 23%; inhibition at 1 µM [23]: 2.66% |
